Reference: patent US11981686B2, “Urea compound having substituent” (DAIICHI SANKYO COMPANY, LIMITED, priority 2019, dated 2024)

These molecules were tested against SIRT6 enzyme (Homo sapiens, UniProt Q8N6T7) (assay: Measurement of deacetylation activity (SIRT6, AlphaLISA, H3K9(Ac) peptide)). Settings: SIRT6 25 ng/mL, H3K9(Ac) biotin peptide 2 nM, NAD 10 μM, room temperature 30 minutes, duplicate.
Sequence of SIRT6 enzyme (Q8N6T7 whole entry, species assumed): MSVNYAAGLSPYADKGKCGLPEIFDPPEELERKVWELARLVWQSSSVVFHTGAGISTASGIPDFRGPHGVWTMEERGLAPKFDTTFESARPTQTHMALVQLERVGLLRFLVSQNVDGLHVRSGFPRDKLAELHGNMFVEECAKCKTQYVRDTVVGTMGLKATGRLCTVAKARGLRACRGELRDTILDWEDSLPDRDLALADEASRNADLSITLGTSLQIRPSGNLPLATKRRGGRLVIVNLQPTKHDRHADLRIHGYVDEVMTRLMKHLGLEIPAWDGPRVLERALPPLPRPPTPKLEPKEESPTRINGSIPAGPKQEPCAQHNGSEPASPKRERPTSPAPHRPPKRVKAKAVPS
Assay type: biochemical
Experimental: The reaction was performed in duplicate using a white 384-well plate (3824, Corning or 6008350, PerkinElmer) at a final reaction liquid volume of 20.1 μL. As a control for calculating the enzyme activity, the enzyme-added (DMSO (+)) and enzyme-free (DMSO (−)) wells were set at n=8. Test substances (examples of final concentrations: 0.046, 0.14, 0.41, 1.2, 3.7, 11, 33, and 100 μM) at a concentration of 100 times or 0.1 μL of DMSO was dispensed into the plate and 5 μL of SIRT6 enzyme (prepared by Daiichi Sankyo RD Novare Co., Ltd., final concentration: 25 ng/mL) diluted with an assay buffer (10 mM Tris-HCl pH of 8.0, 0.1% BSA, 0.01% Tween 20, 1 mM DTT, 12.5% Glycerol) was added thereto. The enzymatic reaction was started by adding 5 μL of a mixed solution [Lys(Ac)9]-Histone H3 (1-21)-NH2, H3K9 (Ac), biotin-labeled, amide (AnaSpec, AS-64190, final concentration: 2 nM) and β-nicotinamide adenine dinucleotide (Sigma-Aldrich, N8285-15VL, final concentration: 10 μM), and the reaction was performed at room temperature for 30 minutes. 10 μL of a mixed solution of nicotinamide (Sigma-Aldrich, 72340-100G, final concentration: 100 mM) prepared with AlphaLISA Epigenetics Buffer (PerkinElmer, AL008C), AlphaLISA Anti-unmodified Histone H3 Lysine 9/Lysine 27 (H3K9/K27) Acceptor Beads (PerkinElmer, AL138, final concentration: 10 μg/mL), and AlphaScreen Streptavidin Donor beads (PerkinElmer, 6760002, final concentration: 5 μg/mL) was added thereto, the reaction was performed at room temperature for 60 minutes and then stopped, and acetylation was detected. The emission intensity was measured by EnVision (PerkinElmer).
The relative enzyme activity (%) of the test substance was calculated by the following equation. Relative enzyme activity (%)=[(emission intensity of test substance-added well−emission intensity of DMSO (−) well)/(emission intensity of DMSO (+) well−emission intensity of DMSO (−) well)]×100
The EC150 (the concentration of the compound showing a relative enzyme activity of 150%) of the test substance was calculated based on Sigmoidal dose-response (variable slope) of GraphPad Prism (GraphPad Software) using the value of the relative enzyme activity (%) at each concentration, and the results are listed in Tables 1-1 to 1-5.
In the case of CC(C)(CO)NC(=O)Nc1nc2c(s1)[C@@H]1COC[C@H](C2)N1c1ncc(-c2cccc(OC(F)F)c2)o1 [Example 170, N-[(4S,8S)-10-{5-[3-(difluoromethoxy)phenyl]-1,3-oxazol-2-yl}-4,7,8,9-tetrahydro-5H-4,8-epiminooxocino[5,4-d][1,3]thiazol-2-yl]-N′-(1-hydroxy-2-methylpropan-2-yl)urea], the “EC150 (the concentration of the compound showing a relative enzyme activity of 150%)” value is reported as 1.2 μm. In the case of CNC(=O)Nc1nc2c(s1)[C@@H]1COC[C@H](C2)N1c1nnc(-c2cccc(OC)c2)o1 [Example 120, N-{(4S,8S)-10-[5-(3-methoxyphenyl)-1,3,4-oxadiazol-2-yl]-4,7,8,9-tetrahydro-5H-4,8-epiminooxocino[5,4-d][1,3]thiazol-2-yl}-N′-methylurea], the “EC150 (the concentration of the compound showing a relative enzyme activity of 150%)” value is reported as 2.4 μm. C[C@H](CO)NC(=O)Nc1nc2c(s1)[C@@H]1COC[C@H](C2)N1c1ncc(-c2cccc(OC(F)F)c2)o1 [Example 70, N-[(4S,8S)-10-{5-[3-(difluoromethoxy)phenyl]-1,3-oxazol-2-yl}-4,7,8,9-tetrahydro-5H-4,8-epiminooxocino[5,4-d][1,3]thiazol-2-yl]-N′-[(2R)-1-hydroxypropan-2-yl]urea] was tested, and the “EC150 (the concentration of the compound showing a relative enzyme activity of 150%)” value was 0.45 μm. For CC(C)(CO)NC(=O)Nc1nc2c(s1)[C@@H]1COC[C@H](C2)N1c1ncc(-c2cccc(C(F)F)c2)o1 [Example 69, N-[(4S,8S)-10-{5-[3-(difluoromethyl)phenyl]-1,3-oxazol-2-yl}-4,7,8,9-tetrahydro-5H-4,8-epiminooxocino[5,4-d][1,3]thiazol-2-yl]-N′-(1-hydroxy-2-methylpropan-2-yl)urea], the “EC150 (the concentration of the compound showing a relative enzyme activity of 150%)” value was 0.59 μm. With [2H]C([2H])([2H])Oc1ccc2oc(N3[C@@H]4COC[C@H]3c3sc(NC(=O)NCC(C)(C)O)nc3C4)nc2c1 [Example 60, N-(2-hydroxy-2-methylpropyl)-N′-[(4S,8S)-10-{5-[(^2H3)methyloxy]-1,3-benzoxazol-2-yl}-4,7,8,9-tetrahydro-5H-4,8-epiminooxocino[5,4-d][1,3]thiazol-2-yl]urea] the “EC150 (the concentration of the compound showing a relative enzyme activity of 150%)” value was 1.7 μm. With O=C(NCCOCCO)Nc1nc2c(s1)CN(c1nc(C3CCC(F)(F)CC3)no1)CC2 [Example 34, N-{5-[3-(4,4-difluorocyclohexyl)-1,2,4-oxadiazol-5-yl]-4,5,6,7-tetrahydro[1,3]thiazolo[5,4-c]pyridin-2-yl}-N′-[2-(2-hydroxyethoxy)ethyl]urea] the “EC150 (the concentration of the compound showing a relative enzyme activity of 150%)” value was 1.9 μm. With O=C(Nc1nc2c(s1)[C@@H]1COC[C@H](C2)N1c1cc(-c2ccc(F)cc2)on1)NC1CCOCC1 [Example 161, N-{(4S,8S)-10-[5-(4-fluorophenyl)-1,2-oxazol-3-yl]-4,7,8,9-tetrahydro-5H-4,8-epiminooxocino[5,4-d][1,3]thiazol-2-yl}-N′-oxan-4-ylurea] the “EC150 (the concentration of the compound showing a relative enzyme activity of 150%)” value was 0.97 μm. With CNC(=O)Nc1nc2c(s1)C1COCC(C2)N1c1cc(-c2ccc(F)cc2)on1 (stereo not drawn) [Example 16, N-{10-[5-(4-fluorophenyl)-1,2-oxazol-3-yl]-4,7,8,9-tetrahydro-5H-4,8-epiminooxocino[5,4-d][1,3]thiazol-2-yl}-N′-methylurea] the “EC150 (the concentration of the compound showing a relative enzyme activity of 150%)” value was 4.2 μm. With CCOc1cccc(-c2cnc(N3[C@@H]4COC[C@H]3c3sc(NC(=O)N[C@H](C)CO)nc3C4)o2)n1 [Example 68, N-{(4S,8S)-10-[5-(6-ethoxypyridin-2-yl)-1,3-oxazol-2-yl]-4,7,8,9-tetrahydro-5H-4,8-epiminooxocino[5,4-d][1,3]thiazol-2-yl}-N′-[(2R)-1-hydroxypropan-2-yl]urea] the “EC150 (the concentration of the compound showing a relative enzyme activity of 150%)” value was 1 μm. In the case of O=C(Nc1nc2c(s1)C1COCC(C2)N1c1nnc(-c2cccc(OC(F)F)c2)o1)N[C@H]1CCOC1 (stereo partly drawn) [Example 115, N-(10-{5-[3-(difluoromethoxy)phenyl]-1,3,4-oxadiazol-2-yl}-4,7,8,9-tetrahydro-5H-4,8-epiminooxocino[5,4-d][1,3]thiazol-2-yl)-N′-[(3S)-oxolan-3-yl]urea], the “EC150 (the concentration of the compound showing a relative enzyme activity of 150%)” value is reported as 2 μm. CNC(=O)Nc1nc2c(s1)[C@@H]1COC[C@H](C2)N1c1nc2cc(C)ccc2o1 [Example 49, N-methyl-N′-[(4S,8S)-10-(5-methyl-1,3-benzoxazol-2-yl)-4,7,8,9-tetrahydro-5H-4,8-epiminooxocino[5,4-d][1,3]thiazol-2-yl]urea] was tested, and the “EC150 (the concentration of the compound showing a relative enzyme activity of 150%)” value was 1.5 μm. In the case of CNC(=O)Nc1nc2c(s1)CN(c1nnc(-c3ccc(F)c(C)c3)o1)CC2 [Example 9, N-{5-[5-(4-fluoro-3-methylphenyl)-1,3,4-oxadiazol-2-yl]-4,5,6,7-tetrahydro[1,3]thiazolo[5,4-c]pyridin-2-yl}-N′-methylurea], the “EC150 (the concentration of the compound showing a relative enzyme activity of 150%)” value is reported as 1.2 μm. For O=C(Nc1nc2c(s1)CN(c1nc(C3CCC(F)(F)CC3)no1)CC2)NC1(CO)CC1 [Example 105, N-{5-[3-(4,4-difluorocyclohexyl)-1,2,4-oxadiazol-5-yl]-4,5,6,7-tetrahydro[1,3]thiazolo[5,4-c]pyridin-2-yl}-N′-[1-(hydroxymethyl)cyclopropyl]urea], the “EC150 (the concentration of the compound showing a relative enzyme activity of 150%)” value was 2 μm. In the case of C[C@H](CO)NC(=O)Nc1nc2c(s1)[C@@H]1COC[C@H](C2)N1c1cc(-c2cccc(C(F)F)c2)on1 [Example 156, N-[(4S,8S)-10-{5-[3-(difluoromethyl)phenyl]-1,2-oxazol-3-yl}-4,7,8,9-tetrahydro-5H-4,8-epiminooxocino[5,4-d][1,3]thiazol-2-yl]-N′-[(2R)-1-hydroxypropan-2-yl]urea], the “EC150 (the concentration of the compound showing a relative enzyme activity of 150%)” value is reported as 1 μm. With COc1ccc2oc(N3[C@@H]4COC[C@H]3c3sc(NC(=O)N[C@H](C)CO)nc3C4)nc2c1 [Example 38, N-[(2R)-1-hydroxypropan-2-yl]-N′-[(4S,8S)-10-(5-methoxy-1,3-benzoxazol-2-yl)-4,7,8,9-tetrahydro-5H-4,8-epiminooxocino[5,4-d][1,3]thiazol-2-yl]urea] the “EC150 (the concentration of the compound showing a relative enzyme activity of 150%)” value was 2 μm. O=C(NCc1nnc[nH]1)Nc1nc2c(s1)CN(c1nc(C3CCC(F)(F)CC3)no1)CC2 [Example 102, N-{5-[3-(4,4-difluorocyclohexyl)-1,2,4-oxadiazol-5-yl]-4,5,6,7-tetrahydro[1,3]thiazolo[5,4-c]pyridin-2-yl}-N′-[(4H-1,2,4-triazol-3-yl)methyl]urea] was tested, and the “EC150 (the concentration of the compound showing a relative enzyme activity of 150%)” value was 0.33 μm. With COc1cc2nc(N3[C@@H]4COC[C@H]3c3sc(NC(=O)N[C@@H]5CCOC5)nc3C4)oc2cc1C [Example 45, N-[(4S,8S)-10-(5-methoxy-6-methyl-1,3-benzoxazol-2-yl)-4,7,8,9-tetrahydro-5H-4,8-epiminooxocino[5,4-d][1,3]thiazol-2-yl]-N′-[(3R)-oxolan-3-yl]urea] the “EC150 (the concentration of the compound showing a relative enzyme activity of 150%)” value was 0.79 μm. In the case of CCc1cccc(-c2nnc(N3[C@@H]4COC[C@H]3c3sc(NC(=O)NC)nc3C4)o2)c1 [Example 118, N-{(4S,8S)-10-[5-(3-ethylphenyl)-1,3,4-oxadiazol-2-yl]-4,7,8,9-tetrahydro-5H-4,8-epiminooxocino[5,4-d][1,3]thiazol-2-yl}-N′-methylurea], the “EC150 (the concentration of the compound showing a relative enzyme activity of 150%)” value is reported as 1.8 μm. With CNC(=O)Nc1nc2c(s1)[C@H]1CN(C(=O)OC)C[C@@H](C2)N1c1nc(-c2ccc(F)cc2)no1 (relative stereo) [Example 24, (−)-Methyl (4R*,8R*)-10-[3-(4-fluorophenyl)-1,2,4-oxadiazol-5-yl]-2-[(methylcarbamoyl)amino]-4,7,8,9-tetrahydro-4,8-epimino[1,3]thiazolo[5,4-d]azocine-6(5H)-carboxylate] the “EC150 (the concentration of the compound showing a relative enzyme activity of 150%)” value was 0.19 μm. For CC(C)CNC(=O)Nc1nc2c(s1)[C@@H]1COC[C@H](C2)N1c1nc2cc(S(C)(=O)=O)ccc2o1 [Example 43, N-{(4S,8S)-10-[5-(methanesulfonyl)-1,3-benzoxazol-2-yl]-4,7,8,9-tetrahydro-5H-4,8-epiminooxocino[5,4-d][1,3]thiazol-2-yl}-N′-(2-methylpropyl)urea], the “EC150 (the concentration of the compound showing a relative enzyme activity of 150%)” value was 1.5 μm. C[C@H]1NC(=O)N(c2nc3c(s2)[C@@H]2COC[C@H](C3)N2c2nc(-c3ccc(F)cc3)no2)C1=O [Example 20, (5R)-3-{(4S,8S)-10-[3-(4-fluorophenyl)-1,2,4-oxadiazol-5-yl]-4,7,8,9-tetrahydro-5H-4,8-epiminooxocino[5,4-d][1,3]thiazol-2-yl}-5-methylimidazolidine-2,4-dione] was tested, and the “EC150 (the concentration of the compound showing a relative enzyme activity of 150%)” value was 2.6 μm.
